Experimental data as given in paper PMC10861593, “Kisspeptin-10 binding to Gpr54 in osteoclasts prevents bone loss by activating Dusp18-mediated dephosphorylation of Src” (Nature Communications, 2024).
Where a SMILES comes first, the peptide text is derived from it.

Experiments:
DUSP18 [1] = target: T1, DUSP18 (Homo sapiens, UniProt Q8NEJ0); assay: SPR (Biacore T200) binding to DUSP18
T1 construct: For purification of full-length WT human DUSP18 and DUSP18 (C104S) proteins; His (N); made in house; host or cells: E. coli
T1 sequence (Q8NEJ0 1-188): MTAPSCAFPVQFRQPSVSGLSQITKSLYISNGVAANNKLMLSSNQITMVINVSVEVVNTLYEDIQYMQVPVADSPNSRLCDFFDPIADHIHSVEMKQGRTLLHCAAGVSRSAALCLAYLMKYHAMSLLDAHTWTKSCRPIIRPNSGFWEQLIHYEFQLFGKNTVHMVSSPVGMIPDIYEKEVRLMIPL
Method: SPR was determined using a Biacore T200 instrument (GE). SRC or DUSP18 protein was immobilized on the sensor chip (CM5) using the amine-coupling method according to standard protocols. Immobilization was performed according to the manufacturer’s recommendations. SRC protein (64 ug/mL, pH5.0) or DUSP18 protein (25 ug/mL, pH7.4) was diluted in 10 mM acetate buffer or 10 mM PBS buffer. Sh2-sh3 (100 ug/mL, pH5.0) was diluted in 10 mM acetate buffer. The kinetics and affinity assay were examined at 25 °C at a flow rate of 30 µl/minute using PBS buffer with 0.05% Tween-20. The KD values were calculated with the kinetics analysis (1:1 model) of Biacore T200 evaluation software. The interaction of GPR54 CT, peptides of PR motifs with Src or DUSP18, and the interaction of DUSP18 and Src were analyzed respectively by regeneration with pH 2.0 Gly-HCl buffer.
The C terminus of human GPR54 (H329- L398) and mouse Gpr54 (R331- L396) cDNAs were subcloned into a pGEX-4T2 vector. For purification of full-length WT human DUSP18 and DUSP18 (C104S) proteins, DUSP18 was cloned into pMCSG7 vector. […]

Src = assay: GST pull-down with WCL of 293T cells transfected with HA-Src; assay type: binding
Source text: Fig. 2 GPR54 recruited Src via the PR motif in GPR54 C-Terminus. a Sequence analysis of the PR motif in multiple species of GPR54 CT. b SH3 domain protein-binding array using the TranSignal™ SH3 Domain Array kit. The principal Src binding region is circled in red evident (1 Src; 2 the dilution of Src in half). c SPR binding-affinity measurement of Src and GPR54 CT. […] GPR54 CT bound with the SH3 domain of Src mainly via the key residues including R336, P339 and P342. e–h IB analysis of total samples and GST pull-downs using GST proteins including GST, GST-GPR54 CT, GST-GPR54 CT m1 (R336A&P339A), GST-GPR54 CT m2 (delta 339–344) incubated separately with WCL of 293 T cells transfected with HA-Src (e) and quantification of protein levels (f), IB analysis of WCL and anti-GPR54 IP assays derived from RAW264.7 cells induced by Kp-10 for 20 min (g) and quantification of protein levels (h). i, j IF staining was carried out using pre-osteoclasts differentiated from BMMs with M-CSF (10 ng/ml) and RANKL (50 ng/ml) stimulation for 2 days, then treated with 10 nM Kp-10 for 20 min. Representative images of endogenous Gpr54 and Src were shown by total internal reflection fluorescence (TIRF) microscopy (i), and the Mander’s overlap coefficient (MOC) as a measure of colocalization in cells from multiple images taken randomly (j). Scale bar, 50 μm. Data represent means ± SEM. […] These are best readings. […]

DUSP18 [2] = assay: GST pull-down with WCL of 293T cells transfected with DUSP18; assay type: binding; conditions: WCL of 293T cells transfected with DUSP18-HA
Method: Beads were analyzed by phosphatase activity assay (a), mass spectrometry assay (b), IB analysis (c) and quantification of protein levels (d). e, f Protein co-localization was analyzed by IF staining in primary pre-osteoclast with 10 nM Kp-10 treatment for 20 min. […] Scale bar, 50 µm. g, h binding affinity was measured by SPR binding analysis. […] Data represent means ± SEM. P values were determined by one-way ANOVA analysis (a, d, j, l) or two-tailed Student’s t-test (f). Representative results were obtained from at least three independent experiments. Source data are provided as a Source Data file.
Supplementary Fig. 6 a, b IB and quantification of protein levels analysis. […] Error bars are ± SEM. P-values were determined by two-tailed Student’s t-test (b, e) or by one-way ANOVA analysis (h, j). *P <0.05, **P <0.01, ***P <0.001, ****P <0.0001. Representative results were observed from at least three independent experiments. Source data are provided as a Source Data file.

Dusp18 knockout mice = assay: bone and osteoclast parameters in Dusp18 knockout mice; assay type: in vivo, mouse; conditions: TRAP staining and osteoclast parameters, femur
Source text: Data represent means ± SEM. […] Representative results were obtained from at least three independent experiments. Source data are provided as a Source Data file.

GPR54 / Src interaction = assay: Co-IP: interaction of GPR54 with Src in transfected 293T cells; assay type: cell-based, human; conditions: inhibitor 1 h (U73122 10 µM, Staurosporine 0.25 µM, LY3214996 10 µM, KN-93 10 µM, Saracatinib 10 µM), then 10 nM Kp-10 20 min
Method: Data represent means ± SEM. P values were determined by one-way ANOVA analysis (b, c, e, g, i, k). Representative results were obtained from at least three independent experiments. Source data are provided as a Source Data file.
Whole-cell proteins were extracted using 1x RIPA buffer (25 mM Tris, pH7.5, 150 mM NaCl, 0.5% Sodium deoxycholate, 1% Triton-X-100) supplemented with protease inhibitors (Complete Mini, Roche) and phosphatase inhibitors (phosphatase inhibitor cocktail set I and II, Calbiochem). Immunoprecipitation and immunoblotting with indicated antibodies were performed as described in Supplementary Table 1. Image Jsoftware (V1.52) was used for quantification analysis. Uncropped and unprocessed blots are presented in the Supplementary Information file.
Error bars are ± SEM. […] Source data are provided as a Source Data file.

[3] = target: T2, His-SRC protein, Src (G85-L536) (human, UniProt P12931 85-536); assay: SPR; Biacore T200, SRC protein immobilised on CM5 by amine coupling (64 ug/mL, pH 5.0, acetate); 25 °C, 30 µl/minute, PBS with 0.05% Tween-20; kinetics analysis, 1:1 model; conditions: both partners purified
T2 construct: human Src, G85-L536, in pFastBac HT B; In the SPR it is called 'SRC protein'; removal of the tag is not mentioned; source: Sf9 (Bac-to-Bac baculovirus), purified; not shown: His6, N-terminal, kept

CC(C)[C@H](NC(=O)[C@@H](N)CCCNC(=N)N)C(=O)N[C@@H](CS)C(=O)N1CCC[C@H]1C(=O)N[C@@H](CS)C(=O)N[C@@H](CS)C(=O)N[C@@H](CCCNC(=N)N)C(=O)O [Gpr54^336–342] (H-RVCPCCR-OH; N-terminus and C-terminus assumed)
kon (DUSP18 [1]; printed in the picture of the figure, read-out: ka): 1130 ± 9500 M⁻¹ s⁻¹

R336A&P339A mutant of human GPR54 CT: GST-GPR54 CT m1 (R336A&P339A)
binding of Src (GST pull-down) (Src): dramatically dampened the interaction of Src with GPR54 CT
binding of DUSP18 (GST pull-down) (DUSP18 [2]): dampened its interaction with DUSP18

O=C(Cc1ccc(-c2ccc(OCCN3CCOCC3)cc2)cn1)NCc1ccccc1 [KX2-391]
rescue of Dusp18 deletion induced osteoclast activity (Dusp18 knockout mice): efficiently rescued

COc1ccc2c(c1)CC[C@@H]1[C@@H]2CC[C@]2(C)[C@@H](NCCCCCCN3C(=O)C=CC3=O)CC[C@@H]12 [U73122]
effect on Kp-10 induced interaction of GPR54 with Src (GPR54 / Src interaction): not by the inhibitors

COc1ccc(S(=O)(=O)N(CCO)c2ccccc2CN(C)C/C=C/c2ccc(Cl)cc2)cc1 [KN-93]
effect on Kp-10 induced interaction of GPR54 with Src (GPR54 / Src interaction): not by the inhibitors

Gpr54^339–344: right-shifted mouse Gpr54 peptide which corresponds to the PxxRxR motif (PCCRQR)
SPR curve when titrated with Dusp18 (DUSP18 [1]; synthesized mouse Gpr54 peptide): generated an unfitted SPR curve

B1: peptide of GPR54^336–356 (peptide, UniProt Q969F8 336-356, looked up)
peptide: RVCPCAPRRPRRPRRPGPSDP
notes: human GPR54 (KiSS1R), residues 336-356 of the PR motif; source: synthetic peptide (GL Biochem)
Kd [3]: 4.24 µM

B2: △339–344 (deletion sign: △) mutant of GPR54 CT: GST-GPR54 CT m2 (delta 339–344) (protein)
chain: HFRQAFRRVCPRRPRRPGPSDPAAPHAELLRLGSHPAPARAQKPGSSGLAARGLCVLGEDNAPL
modifications: left off: GST, N-terminal, kept
binding of Src (GST pull-down) (Src): completely abolished the binding of Src with GPR54 CT
binding of DUSP18 (GST pull-down) (DUSP18 [2]): abolished the binding with DUSP18

B3: GPR54^333–344 (N-terminal half of the PR motif) (peptide, UniProt Q969F8 333-344, looked up)
peptide: AFRRVCPCAPRR
notes: source: synthetic peptide (GL Biochem)
Kd [3]: 28.3 µM
